Assays:
Assay type in all cases: cell-based
HTN-CK2α [1] = molecular target: T1, HTN-CK2α (Homo sapiens, UniProt P68400); assay: Immunoblot of HTN-CK2α O-GlcNAcylation in HEK293T cells co-expressing fOGT
Description: (§1) Ck2α is a well-studied OGT substrate.^17,25 Its Ser347 is conservatively O-GlcNAcylated and this modification was reported to affect its kinase activity.^16,17 We first co-expressed HTN-Ck2α and fOGT in HEK293T cells at different ratio and found the basal O-GlcNAcylation level of HTN-Ck2α was higher than what we detected in the case of HTN-BRD4. Therefore, a lower ratio of fOGT expression (1:100) was selected for the assessment of OGTAC potency (FIG. 9). […] The induction of specific O-GlcNAcylation on HTN-Ck2α was further confirmed by mass-shift assay. […] To validate the direct binding to both fOGT and HTN-Ck2α is critical, we exploited AP 1867 and rhodamine ligand, which bind to fOGT and HTN-Ck2α respectively, to co-treat with OGTAC-1.
During immunoblotting study, we noticed that even for whole cell lysate (WCL), RL2 antibody band (green) and HTN-CK2α protein band (red) are perfectly overlapped and clearly distinguishable from other bands on blot (FIG. 6B). We assessed the OGTAC treatment effects by quantifying the RL2 signal that is overlapping with HTN-Ck2α in WCL, and found they are corresponding with the results achieved by IP-WB method (FIG. 6C). Therefore, we quantify the intensity of RL2 band that overlapping with HTN-CK2α level instead of IP CK2α in later study.
For each IP reaction, 2.2×10^6 HEK293T cells were seed in 10 cm dish. After cells attached, transfection reagents and plasmids were prepared and added in DMEM. After 24 h transfection, media were replaced by fresh warm complete media with DMSO or probes. For washout study, after 4 h treatment, media with DMSO or OGTAC-4 (500 nM) were replaced by fresh media with DMSO or AP1867 (50 μM) for further incubation. After certain time of OGTACs treatment, cells were collected by cold PBS and lysed by 200 μL complete IP lysis buffer. The lysate was incubated on ice for 20 min, spun down at 14,000 RPM at 4° C. for 15 mins, and the supernatant were collected for bicinchoninic acid (BCA) assay and normalized to a final 2 mg/mL. For input, 20 μL of diluted sample was reacted with equal volume of 10 μM TMR ligand in IP lysis buffer and rotate gently at RT for 15 mins. The remaining samples were subjected to protein A/G magnetic beads (MedChemExpress, HY-K0202), which pre-binding with protein target protein antibody. For samples for LC-MS/MS or HTN-BRD4 mutant constructs. Halo-Trap Magnetic Agarose (Proteintech, otma) was used to incubate with protein lysates. After gentle rotation at 4° C. for at least 16 h, the beads were washed with IP lysis buffer and boiled in 40 μL 2×SDS-loading buffer (Biorad #1610747) for 5 mins to elute proteins from beads. Eluted samples were directly subjected into WB analysis. To get stronger signal of RL2, we used anti-mouse-HRP (Cell signaling, #7076) as secondary antibody for RL2 and anti-rabbit-DyLight 488 (Invitrogen, #35552) as secondary antibody for total target proteins.
In general, cells (from 12 well plate) were lysed by 80 μl RIPA lysis buffer (Thermo Scientic 89901) supplemented with 20 μM OGA inhibitor (Thaimet G, Bidepharm BD571819) and 100X protease inhibitor (MedChemExpress, HY-K0010), incubated on ice for 20 min, spun down at 14,000 RPM at 4° C. for 15 mins, and the supernatant were collected for bicinchoninic acid (BCA) assay and normalizedeto a final 2 mg/mL concentration. About 30 μg of protein samples were loaded for sodium dodecyl sulfatepolyacrylamide gel electrophoresis (SDS-PADE) and blotted with indicated antibodies.
Target sequence in this assay (P68400 with tags, fused parts or gaps): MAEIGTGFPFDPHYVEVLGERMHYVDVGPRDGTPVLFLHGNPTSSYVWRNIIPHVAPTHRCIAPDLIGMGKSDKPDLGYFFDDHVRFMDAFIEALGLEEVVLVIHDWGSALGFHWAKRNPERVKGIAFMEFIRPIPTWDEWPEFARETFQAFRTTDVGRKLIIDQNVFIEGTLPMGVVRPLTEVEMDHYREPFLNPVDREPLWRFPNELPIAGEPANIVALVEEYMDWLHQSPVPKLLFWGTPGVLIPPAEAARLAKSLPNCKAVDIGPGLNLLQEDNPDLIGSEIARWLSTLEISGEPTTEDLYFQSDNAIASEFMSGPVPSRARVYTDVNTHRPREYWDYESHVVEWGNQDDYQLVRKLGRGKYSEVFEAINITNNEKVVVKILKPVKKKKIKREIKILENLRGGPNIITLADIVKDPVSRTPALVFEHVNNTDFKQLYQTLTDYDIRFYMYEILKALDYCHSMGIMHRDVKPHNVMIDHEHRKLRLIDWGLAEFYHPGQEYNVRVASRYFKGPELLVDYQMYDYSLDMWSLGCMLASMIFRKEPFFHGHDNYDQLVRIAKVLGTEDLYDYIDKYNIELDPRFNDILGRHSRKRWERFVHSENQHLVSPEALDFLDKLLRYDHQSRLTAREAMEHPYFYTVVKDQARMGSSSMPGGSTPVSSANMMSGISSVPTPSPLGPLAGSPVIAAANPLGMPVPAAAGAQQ
Target sequence in this assay (P62942+O15294 fused P62942:F37V partner): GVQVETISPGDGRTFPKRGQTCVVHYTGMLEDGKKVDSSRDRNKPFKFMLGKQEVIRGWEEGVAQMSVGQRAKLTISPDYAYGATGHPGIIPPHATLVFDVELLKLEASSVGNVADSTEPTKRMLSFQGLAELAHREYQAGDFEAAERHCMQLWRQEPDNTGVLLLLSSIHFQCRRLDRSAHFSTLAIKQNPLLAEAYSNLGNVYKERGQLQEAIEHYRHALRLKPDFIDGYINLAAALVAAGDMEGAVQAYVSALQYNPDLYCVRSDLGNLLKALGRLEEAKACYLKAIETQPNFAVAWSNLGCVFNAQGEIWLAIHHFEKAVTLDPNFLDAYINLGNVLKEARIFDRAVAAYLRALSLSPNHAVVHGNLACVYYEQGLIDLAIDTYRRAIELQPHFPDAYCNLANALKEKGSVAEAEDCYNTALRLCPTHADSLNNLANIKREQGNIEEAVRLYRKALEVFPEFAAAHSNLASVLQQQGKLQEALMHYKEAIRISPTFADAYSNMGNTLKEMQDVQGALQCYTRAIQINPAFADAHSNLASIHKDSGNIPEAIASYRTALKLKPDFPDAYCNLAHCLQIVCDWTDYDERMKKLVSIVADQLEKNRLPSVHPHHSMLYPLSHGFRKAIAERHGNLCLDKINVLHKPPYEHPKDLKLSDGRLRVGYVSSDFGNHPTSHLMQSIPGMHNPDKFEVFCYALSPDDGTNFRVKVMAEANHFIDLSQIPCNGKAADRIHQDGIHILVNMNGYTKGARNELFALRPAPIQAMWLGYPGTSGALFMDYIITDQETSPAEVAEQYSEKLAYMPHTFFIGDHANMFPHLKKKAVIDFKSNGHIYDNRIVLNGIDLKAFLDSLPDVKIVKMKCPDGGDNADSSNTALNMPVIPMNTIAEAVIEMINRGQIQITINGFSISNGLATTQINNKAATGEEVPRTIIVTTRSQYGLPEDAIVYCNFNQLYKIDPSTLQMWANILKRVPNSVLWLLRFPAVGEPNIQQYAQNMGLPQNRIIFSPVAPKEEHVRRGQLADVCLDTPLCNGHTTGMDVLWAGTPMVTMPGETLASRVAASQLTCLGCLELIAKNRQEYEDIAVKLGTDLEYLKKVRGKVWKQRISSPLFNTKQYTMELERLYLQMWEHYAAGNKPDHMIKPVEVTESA

endogenous CK2α = assay: Chemoenzymatic labelling and mass-shift assay, endogenous CK2α; conditions: OGTAC-1 treatment
HTN-CK2α [2] = molecular target: T1, HTN-CK2α; assay: Chemoenzymatic labelling and mass-shift assay, HTN-CK2α; set-up: expressed in transfected cells; host or cells: HEK293T (A5, A6); HeLa (A8); conditions: 1 μM
Description: as §1
Target sequence in this assay (P68400 with tags, fused parts or gaps): as the sequence (P68400 with tags, fused parts or gaps) above
Target sequence in this assay (P62942+O15294 fused P62942:F37V partner): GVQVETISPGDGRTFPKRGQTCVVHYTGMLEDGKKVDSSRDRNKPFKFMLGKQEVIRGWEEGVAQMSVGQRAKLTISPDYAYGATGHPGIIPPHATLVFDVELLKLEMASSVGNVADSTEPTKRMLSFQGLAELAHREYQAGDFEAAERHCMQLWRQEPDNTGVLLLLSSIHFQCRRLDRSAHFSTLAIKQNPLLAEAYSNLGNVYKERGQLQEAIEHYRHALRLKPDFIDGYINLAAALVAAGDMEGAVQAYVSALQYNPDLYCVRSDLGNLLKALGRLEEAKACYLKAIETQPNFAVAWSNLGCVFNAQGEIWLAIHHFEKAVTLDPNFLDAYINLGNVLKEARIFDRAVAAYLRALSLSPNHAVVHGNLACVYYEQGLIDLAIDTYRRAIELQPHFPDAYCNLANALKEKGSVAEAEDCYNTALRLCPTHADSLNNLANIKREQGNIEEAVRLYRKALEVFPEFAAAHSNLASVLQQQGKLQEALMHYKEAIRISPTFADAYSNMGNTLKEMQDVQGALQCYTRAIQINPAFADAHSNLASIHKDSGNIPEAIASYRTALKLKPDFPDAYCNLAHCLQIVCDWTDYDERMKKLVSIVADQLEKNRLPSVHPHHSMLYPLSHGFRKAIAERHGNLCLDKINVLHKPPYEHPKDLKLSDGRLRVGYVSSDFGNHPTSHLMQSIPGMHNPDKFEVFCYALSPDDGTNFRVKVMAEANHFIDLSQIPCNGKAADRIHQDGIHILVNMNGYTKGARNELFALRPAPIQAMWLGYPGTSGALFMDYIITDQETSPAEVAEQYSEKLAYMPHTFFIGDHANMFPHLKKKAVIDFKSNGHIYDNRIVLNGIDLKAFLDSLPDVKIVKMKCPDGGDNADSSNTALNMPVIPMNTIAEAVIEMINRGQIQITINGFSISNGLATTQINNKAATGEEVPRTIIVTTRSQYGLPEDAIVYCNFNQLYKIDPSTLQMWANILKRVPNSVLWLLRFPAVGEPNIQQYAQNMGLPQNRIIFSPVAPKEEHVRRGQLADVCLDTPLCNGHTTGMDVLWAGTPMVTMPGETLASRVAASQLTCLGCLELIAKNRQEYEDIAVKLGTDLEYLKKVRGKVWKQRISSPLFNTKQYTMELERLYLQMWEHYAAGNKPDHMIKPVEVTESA
For each chemoenzymatic labelling reaction. 2×10^5 HEK293T cells were seed to each well of 6 well plate. After cells attached, transfection reagents and plasmids were prepared and added in DMEM. After 24 h transfection, media were replaced by fresh warm complete media with DMSO or probes. […] The supernatant of lysate was then quantified by bicinchoninic acid (BCA) assay and normalized to 2 mg/mL with 1% SDS in buffer. […]

time at which induction of HTN-CK2α O-GlcNAcylation happened (HTN-CK2α [1]; 250 nM): ≤ 4 h
time of peak induction of HTN-CK2α O-GlcNAcylation (HTN-CK2α [1]; 250 nM): 8 h
fold increase of O-GlcNAcylation on HTN-CK2α, whole cell lysate WB (HTN-CK2α [1]; 500 nM and 1 μM): higher fold increase of O-GlcNAcylation
concentration of peak induction of HTN-CK2α O-GlcNAcylation (HTN-CK2α [1]; 24 h treatment): 1 µM
HTN-CK2α O-GlcNAcylation inducing effect among OGTAC-1/2/3 (HTN-CK2α [1]; IP-WB, fOGT ratio 1:100): prevailed among 3 OGTACs
HTN-CK2α O-GlcNAcylation in mass-shift assay (HTN-CK2α [2]): increased HTN-CK2α O-GlcNAcylation
SMILES: CC[C@H](C(=O)N1CCCC[C@H]1C(=O)O[C@H](CCc1ccc(OC)c(OC)c1)c1cccc(OCC(=O)NCCOCCOCCCCCCCl)c1)c1cc(OC)c(OC)c(OC)c1 [OGTAC-1, (R)-1-(3-(2-((2-(2-((6-chlorohexyl)oxy)ethoxy)ethyl)amino)-2-oxoethoxy)phenyl)-3-(3,4-dimethoxyphenyl)propyl (S)-1-((S)-2-(3,4,5-trimethoxyphenyl)butanoyl) piperidine-2-carboxylate]
O-GlcNAcylation level of endogenous CK2α (endogenous CK2α): did not alter

Reference: patent US20250035641A1, “COMPOSITIONS AND METHODS RELATED TO PROTEIN LABELING” (The Chinese University of Hong Kong, priority 2023, published 2025)
